Results: publication PMC7143549, “Anticancer Activities of Meroterpenoids Isolated from the Brown Alga Cystoseira usneoides against the Human Colon Cancer Cells HT-29” (Foods, 2020)
≈ marks a conversion by molar mass, not a printed value.

What was measured:
HT-29 cells = test: Cultrex 96 well BME cell invasion assay; type: cell-based; details: Homo sapiens, 24 h; for inhibition at 10 µg/mL: 10 μg/mL
Description: The invasion activities were measured using Trevigen’s Cultrex® 96 Well Cell Invasion Assays, as previously described. Briefly, about 50 μL of 1X basement membrane extract (BME) in coat buffer was added to each well. After incubation for 4 h at 37 °C in a 5% CO2 atmosphere, the HT-29 cells at 50,000 cells/50μL in serum free McCoy’s medium were added per well to the top chamber containing the tested compound (10 µg/mL for 1, 2, 5, 6, 7, and 8, and 30 µg/mL for compounds 3 and 4). About 150 μL of McCoy’s medium was then added to the lower chamber containing 10% FBS and penicillin/streptomycin as chemoattractants. Cells were allowed to migrate to the lower chamber in a humidified atmosphere containing 5% CO2 at 37 °C for 24 h. Afterwards, top and bottom chambers were aspirated and washed with washing buffer supplemented with the kit. About 100 μL of Cell Dissociation Solution/Calcein-AM was added to each bottom chamber well and incubated for 1 h at 37 °C in CO2 incubator. The cells internalized calcein-AM and the intracellular esterases cleaved the AM moiety to generate free calcein. Fluorescence of the samples was determined at 485 nm excitation, 520 nm emission, using ELISA plate reader (BioTek Instruments, Winooski, VT, USA). The number of cells that had invaded through the BME coat was calculated using a standard curve. Results were expressed as percentage of invasion (%) compared to the control.

HT-29 colon cancer cells = test: Annexin V-FITC/PI flow cytometry apoptosis induction assay; type: cell-based, human; details: 24 h; for necrosis (dead cells): 30 μg/mL
Description: Quantitative assessment of apoptosis was performed by flow cytometry using an Annexin V-FITC Apoptosis Detection Kit. Briefly, 1 × 10^6 HT-29 cells were seeded per well in six-well plates and incubated for 24 h, followed by the addition of the AMTs dissolved in DMSO (final concentrations of 10, 20, and 30 µg/mL for compounds 1, 2, 5, 6, 7, and 8, and 30, 60, and 90 µg/mL for compounds 3 and 4, and less than 0.05% DMSO) and incubation for 24 h. Curcumin (final concentrations of 50 and 75 μM) was used as positive control. The cells were then washed, harvested with trypsin, and centrifuged at 1500 rpm (5 min, 25 °C). The pellet was resuspended in 195 µL of 1 × Annexin buffer and then stained with 5 μL of Annexin V-FITC and 10 μL of PI for 10 min at room temperature, in the dark. To this mixture 200 μL of 1 × Annexin buffer was added before analysis using a Cytomics FC500 flow cytometer (Beckman Coulter, Indianapolis, IN, USA). Following a gating strategy, flow cytometry plots of size (FS) and complexity (SS) of the HT-29 cells were previously established for the elaboration of a measurement protocol. The normal healthy cells, early apoptosis, late apoptosis, and necrotic populations were represented by annexin V-negative/PI-negative population, annexin V-positive/PI-negative, annexin V-positive/PI-positive and annexin-negative/PI-positive cells, respectively. A total of 10,000 cellular events in each sample were analyzed using DML program.

[1] = system: normal human colonic epithelial cells CCD 841 CoN; test: Sulforhodamine B (SRB) cell viability assay, CCD 841 CoN; type: cell-based; details: normal colon cells, 72 h of treatment, mean ± SE of three experiments, read-out: IC50 CCD841 CoN
Description: Cell viability was quantified using the Sulforhodamine B assay described by Skehan et al.. Cells were plated with a density of 5 × 10^3 (HT-29) and 1 × 10^4 (CCD 841 CoN) cells/well and allowed to attach at 37 °C in an atmosphere with 5% CO2. After 24 h, the AMTs dissolved in DMSO were added to the cells (final concentrations of 10, 20, 30, and 50 µg/mL and less than 0.05% of DMSO) and the plates were incubated for 72 h. Then, the cells were fixed by adding 50 μL of TCA (50%) to each well and the plates were maintained for 1 h at 4 °C. The plates were washed five times with deionized water, air-dried, and stained for 30 min at room temperature with 100 μL of 0.4% (w/v) SRB prepared in 1% (v/v) acetic acid. The plates were rinsed quickly five times with 1% acetic acid to remove unbound dye, followed by air-drying. The bound dye was solubilized in 2 mM Tris base (100 μL/well) for 5 min. Optical densities were read on a microplate reader (Spectrophotometer LabsystemsMultiskan EX, λ 492 nm). Three independent assays were conducted, each one in duplicate. A standard curve was constructed for each experiment and used for converting the measured optical density values into numbers of viable cells/well. The inhibition rate was used to evaluate the cell viability and its algorithm was the following formula: ((ODcontrol − ODtreatment)/ODcontrol) × 100; OD, optical density. The OD492 for control cells was taken as 100% viability. The half maximal inhibitory concentration (IC50) was calculated. The selectivity index (SI) of each compound was calculated as IC50 of the compound against the CCD 841 CoN normal cell line/IC50 of the same compound against the HT-29 cancer cell line.

SMILES	inhibition at 10 µg/mL (HT-29 cells) [%]	necrosis (dead cells) (HT-29 colon cancer cells) [%]	IC50 [1] [µg/mL]	also measured
COc1c(C)cc(O)cc1C/C=C(\C)CC(=O)/C=C(/C)CCCC(C)(O)C(=O)/C=C/C(C)(C)O (centres unmarked) [Compound 1, usneoidone Z]	> 40	31.22	46.4 ± 3.87 (≈ 98.2 µM)	
COc1c(C)cc(O)cc1C/C=C(\C)CC(=O)/C=C(\C)CCCC(C)(O)C(=O)/C=C/C(C)(C)O (centres unmarked) [Compound 2, 11-hydroxy-1′-O-methylamentadione]			21.4 ± 2.5 (≈ 45.3 µM)	early apoptotic cells (HT-29 colon cancer cells; 30 μg/mL (Figure 3B)): 1.94%; late apoptotic cells (HT-29 colon cancer cells; 30 μg/mL (Figure 3B)): 12.94%; viability at 30 µg/mL (HT-29 colon cancer cells; Homo sapiens, HT-29, 30 μg/mL (Figure 3B), read-out: viable cells): 57.7%
COc1c(C)cc(O)cc1C/C=C(\C)CC(=O)/C=C(\C)CCCC(C)=O [Compound 3, cystomexicone B]			> 50	inhibition at 30 µg/mL (HT-29 cells; 30 μg/mL (methods, Figure 5C)): > 40%; early apoptotic cells (Annexin V+PI-) (HT-29 colon cancer cells; 90 μg/mL): 4.47%; late apoptotic cells (Annexin V+PI+) (HT-29 colon cancer cells; 90 μg/mL): 52.12%; total percentage of apoptotic cells (HT-29 colon cancer cells; 90 μg/mL): 56.6%
COc1c(C)cc(O)cc1/C=C/C(C)(O)CC(=O)/C=C(/C)CCCC(C)C(=O)/C=C/C(C)(C)O (centres unmarked) [Compound 7, cystodione A]			> 50	induction of apoptosis or death of HT-29 cells (HT-29 colon cancer cells; 4 tested at 30-90 μg/mL, 7 at 10-30 μg/mL): did not induce neither apoptosis nor death
COc1c(C)cc(O)cc1/C=C/C(C)(O)CC(=O)/C=C(\C)CCCC(C)C(=O)/C=C/C(C)(C)O (centres unmarked) [Compound 8, cystodione B]	> 40	20.12	31.9 ± 7.51 (≈ 67.5 µM)	
